Data taken from PubChem BioAssay AID1918993 (Molecular Pharmacology Branch, DTP, NCI, 2023).

System: 233499-124-R-J3-PDC complex spheroid growth
Experiment: Anticancer human tumor 233499-124-R-J3-PDC patient-derived colon adenocarcinoma cell line growth inhibition [AhR]
Settings: for IC50: curve of first compound; for viability, T/C: stronger effect = lower value
From the text: Multicellular complex tumor spheroid response to aryl hydrocarbon receptor antagonists in combination with a variety of drugs and investigational agents in selected tumor cell lines
The current study was undertaken to assess response to aryl hydrocarbon receptor antagonists in combination with standard-of-care drugs and investigational agents in solid tumor complex spheroid models. Complex spheroids include a stromal component modeled by human endothelial cells (HUVEC) and fibroblasts modeled by human mesenchymal stem cells (MSCs). The concentration ranges selected for each drug and investigational agent were based upon clinically achievable concentrations if the clinical Cmax of the agent was known.
Compounds. The drugs and investigational agents: BAY 2416964 (NSC825713), GNF351 (NSC835774), CH-223191 (NSC835775), CPI-455 (NSC825282), aza-TdCyd (NSC777586), decitabine (NSC127716), belinostat (NSC758774), entinostat (NSC756642), pevonedistat (NSC761192), tazemetostat (NSC777109), talazoparib (NSC765396), olaparib (NSC753686), selinexor (NSC780203), nedisertib (M3814, NSC802822), bortezomib (NSC756655), venetoclax (NSC766270), doxorubicin (NSC123127), elimusertib (BAY189344, NSC800525), ceralasertib (AZD6738, NSC777638), TAK-243 (NSC785004), alisertib (NSC759677), etoposide (NSC141540), topotecan (NSC609699), eribulin (NSC707389), gemcitabine (NSC613327), carboplatin (NSC241240), cisplatin (NSC119875), and SN-38 (NSC673596) were obtained from the National Cancer Institute (NCI) Developmental Therapeutics Program Chemical Repository (32). The FDA-approved anticancer drug set is available from the Developmental Therapeutics Program at https://dtp.cancer.gov/organization/dscb/obtaining/available plates.htm. […] The stock solutions were prepared in dimethyl sulfoxide (DMSO, Sigma-Aldrich, St. Louis, MO, cat. D2650), except for the platinum compounds which were prepared in saline (Quality Biological, Gaithersburg, MD, cat. 114-055-101), at 800-fold the tested concentration and stored at -70 degrees C prior to their use. All drugs and investigational agents were tested over a range starting from a high concentration at or near the clinical Cmax and decreasing in half-log increments. If the clinical Cmax for an agent had not been determined, the highest concentration tested was 10 microM (Table 1).
Cell Culture. All cells were maintained in an incubator at 37 degrees C and 5% CO2 with 95% humidity. The PDC lines were cultured according to standard operating procedures established by the NCI PDMR (https://pdmr.cancer.gov). Briefly, all PDCs were thawed and cultured in Matrigel-coated flasks prepared with a working solution of 1X Ham's F-12 nutrient mix, without supplementation (Invitrogen, Waltham, MA, cat. 11765054), 100 U/mL penicillin-streptomycin (Invitrogen, cat. 15140122), and 2.5% Matrigel (Corning Inc., Corning, NY, cat. 354248) for the first three passages. All PDCs were cultured in complete DMEM/F-12 media containing advanced DMEM/F-12 (Invitrogen, cat. 12634028), 4.9% defined fetal bovine serum, heat inactivated (HyClone Laboratories Inc., Logan, UT, cat. SH30070.03HI), 389 ng/mL hydrocortisone (Sigma-Aldrich, cat. H4001), 9.7 ng/mL human EGF recombinant protein (Invitrogen, cat. PHG0313), 23.4 microg/mL adenine (Sigma-Aldrich, cat. A2786), 97.3 U/mL penicillin-streptomycin (Invitrogen, cat. 15140122), 1.9 mM L-glutamine (Invitrogen, cat. 25030081), and 9.7 microM Y-27632 dihydrochloride (Tocris Bioscience, Bristol, United Kingdom, cat. 1254). The PDCs were cultured in complete DMEM/F12 media without 10 microM Y-27632 dihydrochloride for at least two passages prior to the screen. The established cell lines NCI-H1341 and […] were cultured in DMEM/F-12, HEPES (Invitrogen, cat. 11330032), 5% defined fetal bovine serum (HyClone Laboratories Inc., cat. SH30070.03), ITS premix universal culture supplement [insulin (5 microg/mL), transferrin (5 microg/mL), and selenious acid (5 ng/mL)] […]
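Also: spheroids exposed to agents for seven days before reading.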

SMILES: CCc1c2c(nc3ccc(O)cc13)-c1cc3c(c(=O)n1C2)COC(=O)[C@]3(O)CC + CC(CO)NC(=O)c1cc(-c2ccc(Cl)cc2)nn(-c2cnn(C)c2)c1=O
- IC50 (second compound 0.1 µM): 300 nM
- IC50 (second compound 0.316 µM): > 300 nM
- IC50 (second compound 1 µM): > 300 nM
- IC50 (second compound 3.16 µM): > 300 nM
- IC50 (second compound 10 µM): > 300 nM
- viability, T/C (second compound 0.1 µM, first compound 0.000949 µM): 87.3%
- viability, T/C (second compound 0.1 µM, first compound 0.003 µM): 98.9%
- viability, T/C (second compound 0.1 µM, first compound 0.00949 µM): 73.4%
- viability, T/C (second compound 0.1 µM, first compound 0.03 µM): 50.5%
- viability, T/C (second compound 0.1 µM, first compound 0.0949 µM): 60.6%
- viability, T/C (second compound 0.1 µM, first compound 0.3 µM): 55.1%
- viability, T/C (second compound 0.316 µM, first compound 0.000949 µM): 108%
- viability, T/C (second compound 0.316 µM, first compound 0.003 µM): 105%
- viability, T/C (second compound 0.316 µM, first compound 0.00949 µM): 76.4%
- viability, T/C (second compound 0.316 µM, first compound 0.03 µM): 56.2%
- viability, T/C (second compound 0.316 µM, first compound 0.0949 µM): 57.9%
- viability, T/C (second compound 0.316 µM, first compound 0.3 µM): 66.4%
- viability, T/C (second compound 1 µM, first compound 0.000949 µM): 103%
- viability, T/C (second compound 1 µM, first compound 0.003 µM): 94.4%
- viability, T/C (second compound 1 µM, first compound 0.00949 µM): 80.5%
- viability, T/C (second compound 1 µM, first compound 0.03 µM): 64.7%
- viability, T/C (second compound 1 µM, first compound 0.0949 µM): 57.9%
- viability, T/C (second compound 1 µM, first compound 0.3 µM): 62.5%
- viability, T/C (second compound 3.16 µM, first compound 0.000949 µM): 92.8%
- viability, T/C (second compound 3.16 µM, first compound 0.003 µM): 88.2%
- viability, T/C (second compound 3.16 µM, first compound 0.00949 µM): 71.6%
- viability, T/C (second compound 3.16 µM, first compound 0.03 µM): 58%
- viability, T/C (second compound 3.16 µM, first compound 0.0949 µM): 72.8%
- viability, T/C (second compound 3.16 µM, first compound 0.3 µM): 48.6%
- viability, T/C (second compound 10 µM, first compound 0.000949 µM): 93.8%
- viability, T/C (second compound 10 µM, first compound 0.003 µM): 70.4%
- viability, T/C (second compound 10 µM, first compound 0.00949 µM): 77.9%
- viability, T/C (second compound 10 µM, first compound 0.03 µM): 75.4%
- viability, T/C (second compound 10 µM, first compound 0.0949 µM): 49.1%
- viability, T/C (second compound 10 µM, first compound 0.3 µM): 59.7%

SMILES: O=C(c1cc(Cc2n[nH]c(=O)c3ccccc23)ccc1F)N1CCN(C(=O)C2CC2)CC1 + CC(CO)NC(=O)c1cc(-c2ccc(Cl)cc2)nn(-c2cnn(C)c2)c1=O
- IC50 (second compound 0.1 µM): > 10000 nM
- IC50 (second compound 0.316 µM): > 10000 nM
- IC50 (second compound 1 µM): > 10000 nM
- IC50 (second compound 3.16 µM): > 10000 nM
- IC50 (second compound 10 µM): > 10000 nM
- viability, T/C (second compound 0.1 µM, first compound 0.0316 µM): 92.2%
- viability, T/C (second compound 0.1 µM, first compound 0.1 µM): 112%
- viability, T/C (second compound 0.1 µM, first compound 0.316 µM): 102%
- viability, T/C (second compound 0.1 µM, first compound 1 µM): 103%
- viability, T/C (second compound 0.1 µM, first compound 3.16 µM): 97.6%
- viability, T/C (second compound 0.1 µM, first compound 10 µM): 103%
- viability, T/C (second compound 0.316 µM, first compound 0.0316 µM): 99.9%
- viability, T/C (second compound 0.316 µM, first compound 0.1 µM): 92.2%
- viability, T/C (second compound 0.316 µM, first compound 0.316 µM): 95.1%
- viability, T/C (second compound 0.316 µM, first compound 1 µM): 102%
- viability, T/C (second compound 0.316 µM, first compound 3.16 µM): 91.2%
- viability, T/C (second compound 0.316 µM, first compound 10 µM): 104%
- viability, T/C (second compound 1 µM, first compound 0.0316 µM): 91.1%
- viability, T/C (second compound 1 µM, first compound 0.1 µM): 98.9%
- viability, T/C (second compound 1 µM, first compound 0.316 µM): 102%
- viability, T/C (second compound 1 µM, first compound 1 µM): 101%
- viability, T/C (second compound 1 µM, first compound 3.16 µM): 89.2%
- viability, T/C (second compound 1 µM, first compound 10 µM): 109%
- viability, T/C (second compound 3.16 µM, first compound 0.0316 µM): 100%
- viability, T/C (second compound 3.16 µM, first compound 0.1 µM): 84%
- viability, T/C (second compound 3.16 µM, first compound 0.316 µM): 105%
- viability, T/C (second compound 3.16 µM, first compound 1 µM): 87.6%
- viability, T/C (second compound 3.16 µM, first compound 3.16 µM): 94.9%
- viability, T/C (second compound 3.16 µM, first compound 10 µM): 89.7%
- viability, T/C (second compound 10 µM, first compound 0.0316 µM): 90.1%
- viability, T/C (second compound 10 µM, first compound 0.1 µM): 90%
- viability, T/C (second compound 10 µM, first compound 0.316 µM): 80.8%
- viability, T/C (second compound 10 µM, first compound 1 µM): 85%
- viability, T/C (second compound 10 µM, first compound 3.16 µM): 85.5%
- viability, T/C (second compound 10 µM, first compound 10 µM): 67.5%
